Assay results: US20260015350A1, “AZAQUINAZOLINE PAN-KRAS INHIBITORS” (Mirati Therapeutics, Inc., priority 2022, published 2026)

What was measured:
[1] = test system: KRas-mediated phosphorylation of ERK in H727 cells; experiment: Inhibition of KRas-mediated phosphorylation of ERK (Cisbio HTRF pERK), H727 cells; assay type: cell-based; conditions: Homo sapiens; for IC50: NCI-H727, H727 cells, HTRF pERK; for inhibition at 0.1 µM: NCI-H727, 3 h, single point, 100 nM compound, 3 hrs, H727 cells
In short: (§1)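 Cells were seeded at 6,000 per well and treated for 3 hrs with compound in a 10-dose, 3-fold series from 10 uM (0.8% final DMSO), with 0.2 uM Trametinib as Min control. Lysates made at 4° C over 40 mins were incubated 2 hrs at room temperature with d2- and Cryptate-labelled antibodies, then read by HTRF.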

[2] = test system: KRas-mediated phosphorylation of ERK in A549 cells; experiment: Inhibition of KRas-mediated phosphorylation of ERK (Cisbio HTRF pERK), A549 cells; assay type: cell-based; conditions: Homo sapiens; for inhibition at 0.1 µM: A549, 3 h, single point, 100 nM compound, 3 hrs; for IC50: HTRF pERK
Method: (§2) Inhibition of KRas Phosphorylation of ERK (HTRF) by Exemplary Compounds of Formula (I) Cisbio HTRF Advanced PERK Assay Catalog #64[…] […] Add 10 mL of media to stop trypsinizing. Pipette the cells into a conical bottom 50 mL centrifuge tube and centrifuge 5 min×1000 rpm. […] Re-suspend the cell pellet in media, take a cell count, and then adjust the cell density using fresh media. […] Seed 6,000 cells into cell culture plate with 50 μL media. […] Use Tecan to complete the compound addition. Compounds start from 10 uM top, 3-fold dilution, and 10 doses. The final DMSO concentration is 0.8%. Dispensed 0.2 uM Trametinib as Min control. […] Incubate cell plate for 3 hrs in the incubator. […] Dilute 1 volume of 4× lysis buffer with 3 volumes of deionized water. […] Keep lysis buffer on the ice. […] At the end of the compound treatment, flick-off the media. […] Add 35 μL of lysis buffer per well using a Multidrop Combi. Then place on a plate agitator shaking at 300 rpm at 4° C. for 40 mins. […] Make up the HTRF antibody buffer. For each assay plate, mix 50 μL of d2-conjugate antibody with 950 μL of detection buffer. Similarly, mix 50 μL of Cryptate antibody with 950 μL of detection buffer. Then mix the two diluted antibodies together. […] Dispense 3.4 μL the antibody buffer to wells of an empty assay plate. Seal the plate and centrifuge plate 30 sec×1000 rpm. […] At the end of the 4° C. lysis, centrifuge the lysate plates 3 mins×1500 rpm. […] Use the Bravo to transfer 13.6 μL of lysate from cell culture plate to assay plate. Then incubate assay plate for 2 hrs at room temperature. 8. At the end of incubation, read plate on the Envision after centrifuging plate 30 sec×1000 rpm.

[3] = test system: KRas-mediated phosphorylation of ERK in HCT116 cells; experiment: Inhibition of KRas-mediated phosphorylation of ERK (Cisbio HTRF pERK), HCT116 cells; assay type: cell-based; conditions: Homo sapiens; for inhibition at 0.1 µM: HCT-116, 3 h, single point, 100 nM compound, 3 hrs; for IC50: HCT-116, HTRF pERK
Method: as §2

[4] = test system: KRas-mediated phosphorylation of ERK in H358 cells; experiment: Inhibition of KRas-mediated phosphorylation of ERK (Cisbio HTRF pERK), H358 cells; assay type: cell-based; conditions: Homo sapiens; for inhibition at 0.1 µM: NCI-H358, 3 h, single point, 100 nM compound, 3 hrs; for IC50: NCI-H358, HTRF pERK
Method: as §2

[5] = test system: KRas-mediated phosphorylation of ERK in AsPC-1 cells; experiment: Inhibition of KRas-mediated phosphorylation of ERK (Cisbio HTRF pERK), AsPC-1 cells; assay type: cell-based; conditions: Homo sapiens; for IC50: ASPC1, AsPC-1 cells, HTRF pERK; for inhibition at 0.1 µM: ASPC1, 3 h, single point, 100 nM compound, 3 hrs, AsPC-1 cells
In short: as §1

KRas^G12R = biological target: T1, KRas^G12R (Homo sapiens, UniProt P01116, G12R); experiment: KRas binding assay (TR-FRET tracer displacement), KRas G12R
T1 construct: Biotinylated KRas (corresponding to amino acids 1-169, produced at Accelegan Inc.); biotin (biotinylated); purchased Accelegan Inc
T1 sequence (P01116 1-169 isoform P01116-2 G12R): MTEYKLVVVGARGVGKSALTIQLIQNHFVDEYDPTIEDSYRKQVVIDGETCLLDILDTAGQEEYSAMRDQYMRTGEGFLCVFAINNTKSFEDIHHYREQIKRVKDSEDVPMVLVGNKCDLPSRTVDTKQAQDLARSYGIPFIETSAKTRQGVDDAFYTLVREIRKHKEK

KRas^G12V = biological target: T2, KRas^G12V (Homo sapiens, UniProt P01116, G12V); experiment: KRas binding assay (TR-FRET tracer displacement), KRas G12V
T2 construct: Biotinylated KRas (corresponding to amino acids 1-169, produced at Accelegan Inc.); biotin (biotinylated); purchased Accelegan Inc
T2 sequence (P01116 1-169 isoform P01116-2 G12V): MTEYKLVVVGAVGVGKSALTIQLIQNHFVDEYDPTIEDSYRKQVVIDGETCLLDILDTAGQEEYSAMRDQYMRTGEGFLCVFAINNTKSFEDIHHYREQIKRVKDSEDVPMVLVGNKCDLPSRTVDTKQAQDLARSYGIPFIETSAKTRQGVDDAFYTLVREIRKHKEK

KRas^G12D = biological target: T3, KRas^G12D (Homo sapiens, UniProt P01116, G12D); experiment: KRas binding assay (TR-FRET tracer displacement), KRas G12D
T3 construct: Biotinylated KRas (corresponding to amino acids 1-169, produced at Accelegan Inc.); biotin (biotinylated); purchased Accelegan Inc
T3 sequence (P01116 1-169 isoform P01116-2 G12D): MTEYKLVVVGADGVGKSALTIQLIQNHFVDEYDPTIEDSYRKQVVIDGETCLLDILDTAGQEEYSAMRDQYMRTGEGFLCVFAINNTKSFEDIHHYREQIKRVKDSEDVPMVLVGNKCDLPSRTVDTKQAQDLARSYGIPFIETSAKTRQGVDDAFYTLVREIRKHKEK

[6] = test system: KRas-mediated phosphorylation of ERK in H460 cells; experiment: Inhibition of KRas-mediated phosphorylation of ERK (Cisbio HTRF pERK), H460 cells; assay type: cell-based; conditions: Homo sapiens; for inhibition at 0.1 µM: NCI-H460, 3 h, single point, 100 nM compound, 3 hrs; for IC50: NCI-H460, HTRF pERK
Method: as §2

Row | Compound | IC50 [1] [nM] | inhibition at 0.1 µM [2] [%] | inhibition at 0.1 µM [3] [%] | inhibition at 0.1 µM [4] [%] | IC50 [5] [nM] | IC50 (KRas^G12R) [nM] | IC50 (KRas^G12V) [nM] | IC50 (KRas^G12D) [nM] | inhibition at 0.1 µM [6] [%] | IC50 [2] [nM] | IC50 [3] [nM] | IC50 [4] [nM] | IC50 [6] [nM] | inhibition at 0.1 µM [1] [%] | inhibition at 0.1 µM [5] [%]
1 | C#CC1(F)CCN(c2nc(OC[C@@]34CCCN3C[C@H](F)C4)nc3c(F)c(-c4cc(O)cc5ccc(F)c(CC)c45)ncc23)CC1 [Example 553, 5-ethyl-4-(4-(4-ethynyl-4-fluoropiperidin-1-yl)-8-fluoro-2-(((2R,7aS)-2-fluorotetrahydro-1H-pyrrolizin-7a(5H)-yl)methoxy)pyrido[4,3-d]pyrimidin-7-yl)-6-fluoronaphthalen-2-ol] | 1630 | 0 | 6 | 3 | 5160 | 79 | 77 | 864 | 0 |  |  |  |  |  | 
2 | CCc1c(F)ccc2cc(O)cc(-c3ncc4c(N5CCCn6nc(C(=O)N(C)C)cc6C5)nc(N5CC(N(C)C)C5)nc4c3F)c12 [Example 535, 5-(2-(3-(dimethylamino)azetidin-1-yl)-7-(8-ethyl-7-fluoro-3-hydroxynaphthalen-1-yl)-8-fluoropyrido[4,3-d]pyrimidin-4-yl)-N,N-dimethyl-5,6,7,8-tetrahydro-4H-pyrazolo[1,5-a][1,4]diazepine-2-carboxamide] | 2190 | -9 | -3 | -8 | 1620 | 44 | 27 | 17 | 16 |  |  |  |  |  | 
3 | CCc1c(F)ccc2cc(O)cc(-c3ncc4c(N5CCC(C)(O)C(F)(F)CC5)nc(OC[C@@]56CCCN5C[C@H](F)C6)nc4c3F)c12 (stereo partly drawn) [Example 605, 1-(7-(8-ethyl-7-fluoro-3-hydroxynaphthalen-1-yl)-8-fluoro-2-(((2R,7aS)-2-fluorotetrahydro-1H-pyrrolizin-7a(5H)-yl)methoxy)pyrido[4,3-d]pyrimidin-4-yl)-5,5-difluoro-4-methylazepan-4-ol] | 946 | 20 | -12 | 3 | 1560 | 47 | 71 | 119 | 7 |  |  |  |  |  | 
4 | CCc1c(F)ccc2cc(O)cc(-c3ncc4c(N5CCC[C@@](C)(O)C5)nc(OCC5(CN(C)C)CC5CC)nc4c3F)c12 (stereo partly drawn) [Example 703, (3R)-1-(2-((1-((dimethylamino)methyl)-2-ethylcyclopropyl)methoxy)-7-(8-ethyl-7-fluoro-3-hydroxynaphthalen-1-yl)-8-fluoropyrido[4,3-d]pyrimidin-4-yl)-3-methylpiperidin-3-ol] | 982 | 47 | 0 | -10 | 342 | 14 | 7 | 5 | 4 |  |  |  |  |  | 
5 | CCc1c(F)ccc2cc(O)cc(-c3ncc4c(N5CCC[C@@](C)(O)C5)nc(OCC56CNCC5C6)nc4c3F)c12 (stereo partly drawn) [Example 695, (3R)-1-(2-((3-azabicyclo[3.1.0]hexan-1-yl)methoxy)-7-(8-ethyl-7-fluoro-3-hydroxynaphthalen-1-yl)-8-fluoropyrido[4,3-d]pyrimidin-4-yl)-3-methylpiperidin-3-ol] | 2690 | 16 | 13 | -1 | 1110 | 8 | 5 | 4 | -2 |  |  |  |  |  | 
6 | C[C@@]1(O)CCCN(c2nc(OC[C@@]34CCCN3C[C@H](F)C4)nc3c(F)c(-c4cc(O)cc5ccccc45)ncc23)C1 [Example 917, (R)-1-(8-fluoro-2-(((2R,7aS)-2-fluorotetrahydro-1H-pyrrolizin-7a(5H)-yl)methoxy)-7-(3-hydroxynaphthalen-1-yl)pyrido[4,3-d]pyrimidin-4-yl)-3-methylpiperidin-3-ol] | 223 |  |  |  | 149 | 12 | 7 | 4 |  | 233 | 151 | 54 | 198 |  | 
7 | CCc1c(F)ccc2cc(O)cc(-c3ncc4c(N5CC6CNC(CO)C6C5)nc(OC[C@@]56CCCN5C[C@H](F)C6)nc4c3F)c12 (stereo partly drawn) [Example 875, 5-ethyl-6-fluoro-4-(8-fluoro-2-(((2R,7aS)-2-fluorotetrahydro-1H-pyrrolizin-7a(5H)-yl)methoxy)-4-(4-(hydroxymethyl)hexahydropyrrolo[3,4-c]pyrrol-2 (1H)-yl)pyrido[4,3-d]pyrimidin-7-yl)naphthalen-2-ol] | > 10000 |  |  |  | > 10000 | 37 | 34 | 17 |  | > 10000 | > 10000 | > 10000 | > 10000 |  | 
8 | CCc1c(F)ccc2c(F)c(O)cc(-c3ncc4c(N5C[C@@H]6C[C@H](C5)[C@H](O)C6)nc(OC[C@@]56CCCN5C[C@H](F)C6)nc4c3F)c12 [Example 778, (1R,5R,6R)-3-(7-(8-ethyl-4,7-difluoro-3-hydroxynaphthalen-1-yl)-8-fluoro-2-(((2R,7aS)-2-fluorohexahydro-1H-pyrrolizin-7a-yl)methoxy)pyrido[4,3-d]pyrimidin-4-yl)-3-azabicyclo[3.2.1]octan-6-ol] | 45 | 69 | 49 | 64 | 84 | 4 | < 2 | 6 | 74 |  |  |  |  | 36 | 16
9 | CCc1c(F)ccc2cc(O)cc(-c3ncc4c(N5CCOCC6(CCO6)C5)nc(OC[C@@]56CCCN5C[C@H](F)C6)nc4c3F)c12 (stereo partly drawn) [Example 573, 5-ethyl-6-fluoro-4-(8-fluoro-2-(((2R,7aS)-2-fluorotetrahydro-1H-pyrrolizin-7a(5H)-yl)methoxy)-4-(1,6-dioxa-9-azaspiro[3.6]decan-9-yl)pyrido[4,3-d]pyrimidin-7-yl)naphthalen-2-ol] | 15 | 62 | 53 | 94 | 12 |  |  |  | 92 |  |  |  |  |  | 
10 | CCNC(=O)c1cc2n(n1)CCCCN(c1nc(OC[C@@]34CCCN3C[C@H](F)C4)nc3c(F)c(-c4cc(O)cc5ccc(F)c(CC)c45)ncc13)C2 [Example 673, N-ethyl-5-(7-(8-ethyl-7-fluoro-3-hydroxynaphthalen-1-yl)-8-fluoro-2-(((2R,7aS)-2-fluorotetrahydro-1H-pyrrolizin-7a(5H)-yl)methoxy)pyrido[4,3-d]pyrimidin-4-yl)-4,5,6,7,8,9-hexahydropyrazolo[1,5-a][1,4]diazocine-2-carboxamide] | 21 | 43 | 16 | 88 | 115 |  |  |  | 8 |  |  |  |  | 53 | 8
11 | CCc1c(F)ccc2cc3[nH]ncc3c(-c3ncc4c(N5CCCC6(CNS(=O)(=O)N6)C5)nc(OC[C@@]56CCCN5C[C@H](F)C6)nc4c3F)c12 (stereo partly shown) [Example 872] | 1210 |  |  |  | 328 |  |  |  |  | 581 | 636 | 197 | 318 |  | 
